In patent publication US10550097B2, “Selective 11-beta-hydroxysteroid dehydrogenase type 1 inhibitors” (DSM IP ASSETS B.V., priority 2015, dated 2020):
Marks after values point to notes of the source that are not given here.

What was measured:
[1] = Solubility in cosmetic oils from saturated mixtures (UPLC); assay type: physicochemical; conditions: 7 days at room temperature (22° C.); for Solubility in cosmetic oils: Cetiol B: Cetiol B (dibutyl adipate); for Solubility in cosmetic oils: DUB DIS: DUB DIS (diisopropyl sebacate); for Solubility in cosmetic oils: Finsolv EB: Finsolv EB (ethylhexyl benzoate)
Procedure: H2O+0.02% TFA (A phase) and MeCN+0.02% TFA (B phase) were used as eluents, with a flow of 0.5 mL/min.
The solubility of selected compounds was tested in the cosmetic oils Cetiol B (INCI name: dibutyl adipate from BASF Personal Care), DUB DIS (INCI name: diisopropyl sebacate from Stearinerie Dubois) and Finsolv EB ((INCI name: ethylhexyl benzoate from Innospec Performance Chemicals).
Samples of about 1 mg of the compounds to be tested were exactly weighted and dissolved in 90% MeCN(aq) to provide 0.1% (1000 ppm) w/v stock solutions. Aliquots of the stock solutions were diluted with 90% MeCN(aq) to provide 10, 100 and 250 ppm diluted solutions, which were tested by UPLC.
For each compound to be tested about 20 mg material were weighted in three microcentrifuge tubes and to each tube about 150 mg of one cosmetic oil were added, as reported in Table 5 below.
After mixing on a Vortex mixer for 5 min, the respective samples were mixed on a waving platform shaker (20 cycles/min) for 7 days at room temperature (22° C.). After that time, the tubes were centrifuged for 5 min at 12000 rpm, 10 μL samples of the supernatant were diluted to 1.00 mL with MeOH, 100 μL of these solutions were diluted to 1.00 mL with 90% MeCN(aq) and subsequently analyzed by UPLC. The compound concentration in each solution was calculated using the respective calibration curve. From the compound concentration in the diluted solutions the concentrations of the respective parent mixtures was calculated accordingly.

[2] = system: Human skin from abdominal plastic surgery; experiment: Ex vivo: total dermal collagen after cortisone and cortisone/inhibitor treatment; assay type: cell-based; conditions: day 6; for Dermal collagen: untreated set to 100%
Procedure: Human skin from abdominal plastic surgery was used. The skin samples were cut in pieces of ˜8×3 mm (ø×thickness) and cultured up to day 6 in an air-liquid interface in a perforated ring of stainless steel in contact with a culture medium (modified Williams' E medium), while renewing the culture medium on day 3. Six skin specimens were used for each test sample. Each test sample (4 μl) was applied topically on top of each piece after cleaning of the surface with a cotton pad, which was subsequently covered with a 6 ø mm delivery membrane, this procedure was repeated daily. After 6 days skin sections were stained with Picrosirius Red histochemical staining, that dyes collagen fibers in purple-red. The papillary dermis was selected for the analysis. The different colors of the pictures were separated by using a deconvolution matrix. After deconvolution only pink-reddish images are used. Within these images the evaluation of dermal collagen was performed by estimating both color intensity and distribution with IMAGE J (NIH) analysis software. Two slides of each skin sample were processed by image acquisition and related analysis (i.e. 12 images for each treatment).

[3] = system: Human skin from abdominal plastic surgery; experiment: Ex vivo: total dermal collagen III after UV-irradiation; assay type: cell-based; conditions: for Increase versus UV treatment (#2): day 6; for Dermal collagen III: daily UV 6 J/cm^2, day 6, non UV treated set to 100%
Procedure: Human skin from abdominal plastic surgery classified as “Intermediate” (ITA° angle=42°) was used. The skin samples were cut in pieces of approx. 8×3 mm (0×thickness) and cultured up to day 6 in an air-liquid interface in a perforated ring of stainless steel in contact with a culture medium (modified Williams' E medium, while renewing the culture medium on day 3. Six skin specimens were used for each test sample. Each test sample (4 μl) was topically applied on top of each piece after gentle cleaning of the surface with a cotton pad, which was subsequently covered with a 6 ø mm delivery membrane, this procedure was repeated daily. The samples were irradiated daily with 80% of the Biological effective dose for daylight (i.e. 6 J/cm^2) using an adopted BIO-SUN system (Vilber Lourmat). At day 6 twelve skin sections were immunostained with mouse monoclonal anti-collagen III antibody (Sigma cat #c7805). The papillary dermis was selected for the analysis. The evaluation was performed by estimating both color intensity and distribution with IMAGE J (NIH) analysis software. Two slides of each skin sample have been processed by image acquisition and related analysis (i.e. 12 images for each treatment).

[4] = target: T1, 11β-HSD1 (Homo sapiens, UniProt P28845); experiment: 11β-HSD1 enzyme activity assay in cell lysates of transfected HEK-293 cells (HHH7 clone); assay type: biochemical; design: expressed in transfected cells; host or cells: HEK-293 (HHH7 clone), used as cell lysate; conditions: 200 nM cortisone, 450 μM NADPH, 10 min
Procedure: Stably transfected human embryonic kidney (HEK-293) cells expressing 11β-HSD1 and hexose-6-phosphate dehydrogenase (the so called HHH7 clone) were cultivated for 48 h in Dulbecco's modified Eagle medium (DMEM) containing 4.5 g/L glucose, 10% fetal bovine serum, 100 U/mL penicillin, 0.1 mg/mL streptomycin, 1×MEM nonessential amino acids, and 10 mM HEPES buffer, pH 7.4. The cells were then washed with phosphate-buffered saline, and centrifuged for 4 min at 150×g. After removal of the supernatants, cell pellets were snap frozen on dry ice and stored at −80° C. until further use.
Cell lysates were incubated for 10 min at 37° C. in TS2 buffer (100 mM NaCl, 1 mM EGTA, 1 mM EDTA, 1 mM MgCl2, 250 mM sucrose, 20 mM Tris-HCl, pH 7.4) in a final volume of 22.2 μL containing either solvent (0.1% DMSO) or the inhibitor at the respective concentration as indicated in Table 4 (see below).
The steroids were separated by TLC, using methanol-chloroform (1:9) as solvent, followed by scintillation counting and calculation of substrate concentration. Data were collected from four independent measurements (standard deviation<10%).

[5] = target: T1, 11β-HSD1; experiment: Human keratinocytes assay: 11β-HSD1 activity (cortisone to cortisol); assay type: cell-based; conditions: 48 h
Procedure: Cell Culture: Primary human skin keratinocytes obtained from CelINTec advanced Cell Systems were maintained in CnT-PR medium at 37° C. in a humidified 5% CO2-air atmosphere. Cells were subcultured before reaching confluence.
Assessment of 11β-HSD1 activity: Human primary keratinocytes were pre-cultured in complete culture media (CnT-PR, CelINTec) to 90% of confluence. Subsequently cells were washed twice with PBS-buffer to remove remaining corticosteroids and media were exchanged to custom made hydrocortisone-free media.
Calculation: % remaining 11β-HSD1 activity=(cortisol-level with inhibitor/cortisol-level without inhibitor)*100%

[6] = 10 μM in DMSO, cortisone/inhibitor treatment, topical daily
[7] = 100 μM in DMSO, cortisone/inhibitor treatment, topical daily
[8] = 200 μM in DMSO, cortisone/inhibitor treatment, topical daily

T1 sequence (P28845 whole entry): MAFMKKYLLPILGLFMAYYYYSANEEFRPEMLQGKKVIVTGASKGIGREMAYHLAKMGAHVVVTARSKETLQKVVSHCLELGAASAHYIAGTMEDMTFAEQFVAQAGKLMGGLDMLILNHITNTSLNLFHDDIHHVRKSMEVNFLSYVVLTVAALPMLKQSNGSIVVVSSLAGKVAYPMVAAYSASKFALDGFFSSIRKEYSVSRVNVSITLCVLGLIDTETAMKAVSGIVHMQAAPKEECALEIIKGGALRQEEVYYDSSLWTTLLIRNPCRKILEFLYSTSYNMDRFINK

SMILES | Solubility in cosmetic oils: Cetiol B [1] | Solubility in cosmetic oils: DUB DIS [1] | Solubility in cosmetic oils: Finsolv EB [1] | remaining activity at 0.001 µM [5] [%] | remaining activity at 0.00316 µM [5] [%] | remaining activity at 0.01 µM [5] [%] | remaining activity at 0.03162 µM [5] [%] | remaining activity at 0.1 µM [5] [%] | also measured
Cc1ccc(-c2cccc(C(=O)N3CCC(C)CC3)c2)cc1F [II-d, (3′-fluoro-4′-methyl-[1,1′-biphenyl]-3-yl)(4-methylpiperidin-1-yl)methanone] |  |  |  |  |  |  |  |  | 11β-HSD1 Remaining activity [% of control] ([4]; inhibitor 100 nM): 45 % of control
CC1CCN(C(=O)c2cccc(-c3ccccc3Cl)c2)CC1 [II-e, (2′-chloro-[1,1′-biphenyl]-3-yl)(4-methylpiperidin-1-yl)methanone] |  |  |  | 85 | 70 | 50 | 21 | 4 | 
Cc1ccc(-c2cccc(C(=O)N3CCC(C)CC3)c2)cc1 [II-f, (4′-methyl-[1,1′-biphenyl]-3-yl)(4-methylpiperidin-1-yl)methanone] |  |  |  |  |  |  |  |  | 11β-HSD1 Remaining activity [% of control] ([4]; inhibitor 1 μM): 2 % of control
Cc1ccc(-c2cccc(C(=O)N3CCCC(C)(C)C3)c2)cc1F [II-h, (3,3-dimethylpiperidin-1-yl)(3′-fluoro-4′-methyl-[1,1′-biphenyl]-3-yl)methanone] |  |  |  | 10 |  |  |  |  | remaining activity at 40 pM [5]: 74%; remaining activity at 0.0001 µM [5]: 45%; remaining activity at 0.00032 µM [5]: 24%
CC1CCN(C(=O)c2cccc(-c3cccc(C(N)=O)c3)c2)CC1 [II-k, 3′-(4-methylpiperidine-1-carbonyl)-[1,1′-biphenyl]-3-carboxamide] | 3.0% | 2.4% | 3.4% |  |  |  |  |  | 
Cc1ccc(-c2cccc(C(=O)N3CC(C)OC(C)C3)c2)cc1 (centres unmarked) [III-c, (2,6-dimethylmorpholino) (4′-methyl-[1,1′-biphenyl]-3-yl)methanone] |  |  |  |  |  |  |  |  | 11β-HSD1 Remaining activity [% of control] ([4]; inhibitor 100 nM): 60 % of control; 11β-HSD1 Remaining activity [% of control] ([4]; inhibitor 1 μM): 3 % of control
Cc1ccc(-c2cccc(C(=O)N3CCCCCC3)c2)cc1F [IV-a, azepan-1-yl(3′-fluoro-4′-methyl-[1,1′-biphenyl]-3-yl)methanone] |  |  |  | 74 | 45 | 22 | 8 | 2 | Dermal collagen [2, 6]: 96%; Increase versus cortisone (#2) ([2]; 10 μM in DMSO): +25%; Dermal collagen [2, 7]: 97%; Increase versus cortisone (#2) ([2]; 100 μM in DMSO): +26%; Dermal collagen [2, 8]: 86%; Increase versus cortisone (#2) ([2]; 200 μM in DMSO): +12%; Increase versus UV treatment (#2) ([3]; 10 μM in DMSO): +13%; Dermal collagen III ([3]; 10 μM in DMSO): 90%; Increase versus UV treatment (#2) ([3]; 100 μM in DMSO): +21%; Dermal collagen III ([3]; 100 μM in DMSO): 97%
O=C(c1cccc(-c2ccccc2)c1)N1CCCCCC1 [IV-f, [1,1′-biphenyl]-3-yl(azepan-1-yl)methanone] | ≥ 10.6%^b | ≥ 10.2%^b | ≥ 10.3%^b | 83 | 73 | 52 | 28 | 10 | Dermal collagen [2, 6]: 103%; Increase versus cortisone (#2) ([2]; 10 μM in DMSO): +34%; Dermal collagen [2, 7]: 103%; Increase versus cortisone (#2) ([2]; 100 μM in DMSO): +34%; Dermal collagen [2, 8]: 93%; Increase versus cortisone (#2) ([2]; 200 μM in DMSO): +21%; Increase versus UV treatment (#2) ([3]; 10 μM in DMSO): +6%; Dermal collagen III ([3]; 10 μM in DMSO): 85%; Increase versus UV treatment (#2) ([3]; 100 μM in DMSO): +33%; Dermal collagen III ([3]; 100 μM in DMSO): 106%
C[C@]12CCC(=O)C=C1CC[C@@H]1[C@@H]2C(=O)C[C@@]2(C)[C@H]1CC[C@]2(O)C(=O)CO [cortisone, reference compound] |  |  |  |  |  |  |  |  | Dermal collagen ([2]; cortisone alone 0.1 μM in DMSO): 77%

Continued, in another order:

Solubility in cosmetic oils: Cetiol B [1] | Solubility in cosmetic oils: DUB DIS [1] | Solubility in cosmetic oils: Finsolv EB [1] | remaining activity at 0.001 µM [5] [%] | remaining activity at 0.00316 µM [5] [%] | remaining activity at 0.01 µM [5] [%] | remaining activity at 0.03162 µM [5] [%] | remaining activity at 0.1 µM [5] [%] | SMILES | also measured
≥ 13.2%^b | ≥ 10.6%^b | ≥ 10.2%^b |  |  |  |  |  | Cc1ccc(-c2cccc(C(=O)N3CCC(C)CC3)c2)cn1 [II-a, (4-methylpiperidin-1-yl)(3-(6-methylpyridin-3-yl)phenyl)methanone] | Dermal collagen [2, 6]: 94%; Increase versus cortisone (#2) ([2]; 10 μM in DMSO): +22%; Dermal collagen [2, 7]: 108%; Increase versus cortisone (#2) ([2]; 100 μM in DMSO): +40%; Dermal collagen [2, 8]: 114%; Increase versus cortisone (#2) ([2]; 200 μM in DMSO): +48%; Increase versus UV treatment (#2) ([3]; 10 μM in DMSO): +5%; Dermal collagen III ([3]; 10 μM in DMSO): 84%; Increase versus UV treatment (#2) ([3]; 100 μM in DMSO): +43%; Dermal collagen III ([3]; 100 μM in DMSO): 114%
 |  |  | 55 | 37 | 11 | 3 | 0 | Cc1ccc(-c2cccc(C(=O)N3CCOC(C)(C)C3)c2)cc1F [III-a, (2,2-dimethylmorpholino) (3′-fluoro-4′-methyl-[1,1′-biphenyl]-3-yl)methanone] | remaining activity at 0.00032 µM [5]: 70%
10.0% | 4.3% | 2.6% |  |  |  |  |  | Cc1ccc(-c2cccc(C(=O)N3CC(C)OC(C)C3)c2)cc1F (centres unmarked) [III-b, (2,6-dimethylmorpholino) (3′-fluoro-4′-methyl-[1,1′-biphenyl]-3-yl)methanone] | 
3.3% | 2.6% | 4.0% | 70 | 42 | 23 | 9 | 3 | Cc1ccc(-c2cccc(C(=O)N3CCCCCC3)c2)cc1 [IV-c, azepan-1-yl(4′-methyl-[1,1′-biphenyl]-3-yl)methanone] | 
